Measurements as given in US11684616B2, “Azalactam compounds as HPK1 inhibitors” (PFIZER INC., priority 2020, dated 2023).

target: human full-length autophosphorylated recombinant HPK1 (Homo sapiens (Human), UniProt Q92918); assay: HPK1 biochemical enzyme assay (chelation-enhanced fluorescence, CHEF); conditions: 0.5 nM HPK1, 45 μM ATP, Morrison fit
Experimental: HPK1 Biochemical Enzyme Assay
HPK1 enzyme inhibition was measured by using the fluorescence-based chelation-enhanced fluorescence (CHEF) method (1), and by using a proprietary fluorescent peptide substrate, in which a cysteine residue is alkylated with a sulfonamido-oxine-based derivative to afford an amino acid termed C-Sox (CSx). […] Initial reaction velocities were determined by following the peptide fluorescence (λex=360 nm, λem=500 nm) at 30° C. for 15 min in a Tecan M1000 plate reader (Tecan Group Ltd., Mannedorf, Zurich, Switzerland).
Production of Autophosphorylated Full-Length Recombinant HPK1
The DNA sequence encoding full-length human HPK1 (Genbank NM_001042600.2) was synthesized at GenScript and contained a limited number of silent base changes to eliminate certain restriction endonuclease enzyme recognition sites, and fused to a DNA sequence encoding a Tobacco Etch Virus (TEV)-cleavable N-terminal polyhistidine purification tag. A recombinant baculovirus was prepared by using the Bac-to-Bac method (InVitrogen) and was used to infect 9 L of Sf21 insect cells. All purification steps were carried out at 4° C. Cells containing recombinant HPK1 were lysed in 50 mM HEPES-NaOH, pH 7.5, 250 mM NaCl, 1 mM tris(2-carboxyethyl)phosphine (TCEP), 10 μM leupeptin (Sigma), 10 μM E-64 (Sigma), and one ‘EDTA-free’ protease inhibitor tablet (Roche) per 75 mL buffer, centrifuged at 15,000×g for 1 h and the supernatant passed over 5 mL of ProBond IMAC resin (InVitrogen). After washing, HPK1 was eluted with 12.5 mL of 50 mM HEPES-NaOH, pH 7.5, 400 mM NaCl, 250 mM imidazole-HCl pH 7.5, 1 mM TCEP, 2 μM leupeptin, and 2 μM E-64. The eluted HPK1 was dialyzed overnight against 0.8 L of 50 mM HEPES-NaOH, pH 7.5, 400 mM NaCl, 20 mM imidazole-HCl pH 7.5, 1 mM TCEP, 2 μM leupeptin, 2 μM E-64, 2 mM ATP-NaOH pH 7.3, 5 mM MgCl2 and 1 mg TEV (this step simultaneously allows for reduction of the imidazole concentration in preparation for the subsequent reverse IMAC chromatography step, removal of the polyhistidine purification tag by TEV protease, and autophosphorylation of HPK1 in the presence of MgATP). The de-tagged and autophosphorylated HPK1 was adjusted to 40 mM imidazole-HCl, pH 7.5, and passed through a 10 mL column of ProBond resin similarly equilibrated. […] The peak fractions containing HPK1 were pooled and concentrated to approximately 2.5 mL by using a centrifugal concentrator (Millipore). The concentrated HPK1 was adjusted to 20% (v/v) glycerol by the addition of 50% (v/v) glycerol, resulting in a final formulation of 25 mM HEPES-NaOH pH 7.5, 250 mM NaCl, 0.25 mM TCEP and 20% (v/v) glycerol. […] Aliquots of the enzyme were flash frozen in liquid nitrogen and stored at −80° C. The final product contains a glycine-serine extension at the N-terminus of the full-length protein, as a result of the cloning strategy.

Sequence of human full-length autophosphorylated recombinant HPK1 (Q92918 other isoform, or with tags, fused parts or gaps): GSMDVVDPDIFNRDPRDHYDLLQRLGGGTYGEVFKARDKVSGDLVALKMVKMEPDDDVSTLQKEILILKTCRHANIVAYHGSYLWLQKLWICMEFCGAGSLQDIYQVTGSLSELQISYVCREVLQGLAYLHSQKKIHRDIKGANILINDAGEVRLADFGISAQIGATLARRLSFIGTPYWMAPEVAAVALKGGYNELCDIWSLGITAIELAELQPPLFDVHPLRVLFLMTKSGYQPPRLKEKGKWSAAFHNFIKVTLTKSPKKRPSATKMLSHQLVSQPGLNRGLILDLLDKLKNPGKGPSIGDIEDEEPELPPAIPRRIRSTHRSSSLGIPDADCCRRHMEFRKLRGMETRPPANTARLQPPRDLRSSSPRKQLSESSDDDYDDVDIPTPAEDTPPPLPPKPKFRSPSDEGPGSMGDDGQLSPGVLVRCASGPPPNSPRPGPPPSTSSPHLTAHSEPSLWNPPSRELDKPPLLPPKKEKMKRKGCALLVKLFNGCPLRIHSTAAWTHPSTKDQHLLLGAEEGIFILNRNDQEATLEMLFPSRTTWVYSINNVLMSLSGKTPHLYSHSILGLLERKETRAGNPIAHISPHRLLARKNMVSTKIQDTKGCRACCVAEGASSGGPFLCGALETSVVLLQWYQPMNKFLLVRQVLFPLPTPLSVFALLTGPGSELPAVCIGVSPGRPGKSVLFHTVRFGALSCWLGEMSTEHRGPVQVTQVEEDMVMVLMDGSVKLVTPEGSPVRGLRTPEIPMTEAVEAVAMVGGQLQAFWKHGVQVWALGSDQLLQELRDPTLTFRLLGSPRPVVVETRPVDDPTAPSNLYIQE

Ki [nM]	Structure (SMILES)
1.38	C[C@@H](N)c1nc(C2(C)CC2)cc2c1CN(c1cccc(-c3nncn3C3CCC3)n1)C2=O (stereo in doubt) [Example 103, 4-[(1ξ)-1-aminoethyl]-2-[6-(4-cyclobutyl-4H-1,2,4-triazol-3-yl)pyridin-2-yl]-6-(1-methylcyclo-propyl)-2,3-dihydro-1H-pyrrolo[3,4-c]pyridin-1-one]
2.36	C[C@H](N)c1nc(C2(C)CC2)cc2c1CN(c1cccc(-c3nncn3C3CCC3)n1)C2=O (stereo in doubt) [Example 104, 4-[(1ξ)-1-aminoethyl]-2-[6-(4-cyclobutyl-4H-1,2,4-triazol-3-yl)pyridin-2-yl]-6-(1-methylcyclo-propyl)-2,3-dihydro-1H-pyrrolo[3,4-c]pyridin-1-one]
2.01	CC[C@@H](N)c1nc(C2(C)CC2)cc2c1CN(c1cccc(-c3nncn3C3CCC3)n1)C2=O (stereo in doubt) [Example 105, 4-[(1ξ)-1-aminopropyl]-2-[6-(4-cyclobutyl-4H-1,2,4-triazol-3-yl)pyridin-2-yl]-6-(1-methylcyclo-propyl)-2,3-dihydro-1H-pyrrolo[3,4-c]pyridin-1-one]
1.42	CCC(CC)n1cnnc1-c1cccc(N2Cc3c(cc(C4(C)CC4)nc3[C@H](C)N)C2=O)n1 (stereo in doubt) [Example 125, 4-[(1ξ)-1-aminoethyl]-6-(1-methyl-cyclopropyl)-2-{6-[4-(pentan-3-yl)-4H-1,2,4-triazol-3-yl]pyridin-2-yl}-2,3-dihydro-1H-pyrrolo[3,4-c]pyridin-1-one]
1.78	CCC(CC)n1cnnc1-c1cccc(N2Cc3c(cc(C4(C)CC4)nc3[C@@H](C)N)C2=O)n1 (stereo in doubt) [Example 126, 4-[(1ξ)-1-aminoethyl]-6-(1-methyl-cyclopropyl)-2-{6-[4-(pentan-3-yl)-4H-1,2,4-triazol-3-yl]pyridin-2-yl}-2,3-dihydro-1H-pyrrolo[3,4-c]pyridin-1-one]
1.41	CCN(C)c1cc2c(c([C@@H](C)N)n1)CN(c1cccc(-c3nnc(C)n3CC)n1)C2=O (stereo in doubt) [Example 127, 4-[(1ξ)-1-aminoethyl]-6-[ethyl(methyl)amino]-2-[6-(4-ethyl-5-methyl-4H-1,2,4-triazol-3-yl)pyridin-2-yl]-2,3-dihydro-1H-pyrrolo[3,4-c]pyridin-1-one]
1.54	CCCn1cnnc1-c1cccc(N2Cc3c(cc(N(C)C)nc3[C@H](N)CC)C2=O)n1 (stereo in doubt) [Example 142, 4-[(1ξ)-1-aminopropyl]-6-(dimethyl-amino)-2-[6-(4-propyl-4H-1,2,4-triazol-3-yl)pyridin-2-yl]-2,3-dihydro-1H-pyrrolo[3,4-c]pyridin-1-one]
3.14	CC[C@@H](N)c1nc(N(C)C)cc2c1CN(c1cccc(-c3nncn3CC)n1)C2=O (stereo in doubt) [Example 146, 4-[(1ξ)-1-aminopropyl]-6-(dimethyl-amino)-2-[6-(4-ethyl-4H-1,2,4-triazol-3-yl)pyridin-2-yl]-2,3-dihydro-1H-pyrrolo[3,4-c]pyridin-1-one]
1	CC[C@H](N)c1nc(N(C)C)cc2c1CN(c1cccc(-c3nncn3CC)n1)C2=O (stereo in doubt) [Example 147, 4-[(1ξ)-1-aminopropyl]-6-(dimethyl-amino)-2-[6-(4-ethyl-4H-1,2,4-triazol-3-yl)pyridin-2-yl]-2,3-dihydro-1H-pyrrolo[3,4-c]pyridin-1-one]
1.25	CCn1cnnc1-c1cccc(N2Cc3c(cc(N(C)C)nc3[C@@H](C)N)C2=O)n1 (stereo in doubt) [Example 153, 4-[(1ξ)-1-aminoethyl]-6-(dimethyl-amino)-2-[6-(4-ethyl-4H-1,2,4-triazol-3-yl)pyridin-2-yl]-2,3-dihydro-1H-pyrrolo[3,4-c]pyridin-1-one]
